According to the SangsterLogP compilation:

Assay: method code SF-HPLC, from DOI: 10.1081/jlc-100101463
Conditions: pH 12.0

Compound | logD
CC1CCCC(C)N1CC1CN=C(N)O1 (stereo not drawn) | 0.94
CC(=O)c1cccc(OCC2CN=C(N)O2)c1 (stereo not drawn) | 1.31
NC1=NCC(CN2CCC(Cc3ccccc3)CC2)O1 (stereo not drawn) | 2.38
NC1=NCC(CN2CCC(C(=O)c3ccccc3)CC2)O1 (stereo not drawn) | 1.05
CC1CCCCN1CC1CN=C(N)O1 (stereo not drawn) | 0.73
CC1CN(CC2CN=C(N)O2)CC(C)O1 (stereo not drawn) | 0.16
Cc1cc(C)cc(OCC2CN=C(N)O2)c1 (stereo not drawn) | 2.24
NC1=NCC(CN2CC=CCC2)O1 (stereo not drawn) | 0.19
CC(C)(C)c1ccc(OCC2CN=C(N)O2)cc1 (stereo not drawn) | 2.87
NC1=NCC(CN2CCC(c3ccccc3)CC2)O1 (stereo not drawn) | 1.96
CC(C)N(CC1CN=C(N)O1)C(C)C (stereo not drawn) | 0.98
CC1CCN(CC2CN=C(N)O2)CC1 (stereo not drawn) | 0.91
NC1=NCC(CN2CCOCC2)O1 (stereo not drawn) | -0.22
